From ChEMBL document CHEMBL1201862, “PubChem BioAssay data set” (2004) come the findings set out here.

The source made the active and inactive calls. Where only a bound is given, the exact number is not on record here.

The term IC50 denotes the concentration at which inhibition is half-maximal. Usually AC50 stands for the concentration at which the activity in the assay is half-maximal. By EC50 is commonly meant the concentration at which the effect is half-maximal. The term CC50 denotes the concentration giving 50% cytotoxicity.

In assay [1] the target is T1, Aminopeptidase N (Plasmodium falciparum FcB1/Columbia, UniProt O96935).
T1 sequence (O96935 whole entry): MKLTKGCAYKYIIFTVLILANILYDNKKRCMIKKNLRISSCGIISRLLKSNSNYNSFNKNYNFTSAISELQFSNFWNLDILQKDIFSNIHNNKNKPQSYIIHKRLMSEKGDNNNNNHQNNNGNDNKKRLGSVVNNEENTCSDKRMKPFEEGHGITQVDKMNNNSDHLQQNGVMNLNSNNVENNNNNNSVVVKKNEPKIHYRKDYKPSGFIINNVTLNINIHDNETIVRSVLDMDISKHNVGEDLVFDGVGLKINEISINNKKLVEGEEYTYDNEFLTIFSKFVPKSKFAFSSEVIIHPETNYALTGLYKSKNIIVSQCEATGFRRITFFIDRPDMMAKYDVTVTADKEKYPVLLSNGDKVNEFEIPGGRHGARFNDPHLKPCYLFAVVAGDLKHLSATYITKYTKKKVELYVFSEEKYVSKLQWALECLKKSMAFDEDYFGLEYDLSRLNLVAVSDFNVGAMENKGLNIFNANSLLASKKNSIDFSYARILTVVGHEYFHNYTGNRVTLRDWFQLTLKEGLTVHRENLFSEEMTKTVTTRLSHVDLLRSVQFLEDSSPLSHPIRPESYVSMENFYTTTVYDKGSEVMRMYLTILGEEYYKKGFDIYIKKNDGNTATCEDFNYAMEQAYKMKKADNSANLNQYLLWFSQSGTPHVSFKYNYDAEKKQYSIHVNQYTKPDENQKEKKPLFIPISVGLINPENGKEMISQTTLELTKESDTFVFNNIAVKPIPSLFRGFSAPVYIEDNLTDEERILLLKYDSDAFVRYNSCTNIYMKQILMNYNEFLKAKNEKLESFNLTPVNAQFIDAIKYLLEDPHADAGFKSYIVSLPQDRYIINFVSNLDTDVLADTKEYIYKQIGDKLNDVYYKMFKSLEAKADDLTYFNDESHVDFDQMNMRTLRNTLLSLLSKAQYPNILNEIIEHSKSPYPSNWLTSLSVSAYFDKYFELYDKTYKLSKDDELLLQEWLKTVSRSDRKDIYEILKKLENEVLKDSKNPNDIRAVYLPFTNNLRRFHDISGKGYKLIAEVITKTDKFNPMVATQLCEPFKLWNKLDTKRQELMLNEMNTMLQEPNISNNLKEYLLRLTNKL
The assay is described as follows: P. falciparum M1AAP inhibitors, biochemical, fluorogenic H-Leu-NHMec substrate, 1536-well (AID 1445). More on the design: species or system Plasmodium falciparum 3D7, 3D7.

Assay [2] concerns the target Large T antigen (Simian virus 40, UniProt P03070). It is filed as functional, Betapolyomavirus macacae.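 Note: Confirmatory-stage PubChem screen for compounds that inhibit SV40 T antigen.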
For assay [3], the target named is E3 ubiquitin-protein ligase XIAP (Homo sapiens, UniProt P98170). The assay is described as follows: Counter Screen using XIAP-Bir3 for Chemical Antagonists of Bir1/2 domains of IAP-family anti-apoptotic proteins. [Related pubchem assays (depositor defined):AID1018, AID1449, AID1514, AID1638, AID1749, AID1750, AID488957, AID488963]. In general terms: Counterscreens check selectivity or assay interference.
Sequence of E3 ubiquitin-protein ligase XIAP (P98170 whole entry): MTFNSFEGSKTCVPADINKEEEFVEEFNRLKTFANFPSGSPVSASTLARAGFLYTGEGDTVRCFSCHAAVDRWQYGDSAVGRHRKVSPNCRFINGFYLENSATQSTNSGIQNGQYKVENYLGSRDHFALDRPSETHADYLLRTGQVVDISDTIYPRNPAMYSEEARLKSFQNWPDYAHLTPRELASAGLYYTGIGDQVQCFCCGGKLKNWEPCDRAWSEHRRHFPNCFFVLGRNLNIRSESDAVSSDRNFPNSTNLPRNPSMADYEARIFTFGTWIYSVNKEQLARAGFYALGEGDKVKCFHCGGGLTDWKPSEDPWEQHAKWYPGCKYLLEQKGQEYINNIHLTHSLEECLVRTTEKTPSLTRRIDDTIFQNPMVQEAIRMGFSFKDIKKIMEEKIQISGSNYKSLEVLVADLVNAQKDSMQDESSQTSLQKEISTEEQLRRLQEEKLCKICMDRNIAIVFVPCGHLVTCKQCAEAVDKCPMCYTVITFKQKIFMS

Assay [4] addresses Bifunctional protein GlmU (Mycobacterium tuberculosis, UniProt P9WMN3). The assay is described as follows: Inhibitors of Mycobacterial Glucosamine-1-phosphate acetyl transferase (GlmU). Secondary screen. Set-up: species or system Mycobacterium tuberculosis H37Rv.
Assay [5] has as its target Keap1/Nrf2 (Homo sapiens, UniProt Q14145). The assay is described as follows: Keap1-Nrf2 protein-protein interaction inhibitors, dose response, biochemical, fluorescence polarization, cherry-picked samples (AID 588683). In general terms: Polarisation of emitted light reports the rotation of a fluorescent probe.
For assay [6], the target named is Genome polyprotein (dengue virus type 2, UniProt P29990). The assay is described as follows: Dengue-2 NS5 methyltransferase inhibitors, primary screen, biochemical, confirmation dose response (AID 588689). It is filed as functional.
Sequence of Genome polyprotein (P29990 2492-3391 limits assumed): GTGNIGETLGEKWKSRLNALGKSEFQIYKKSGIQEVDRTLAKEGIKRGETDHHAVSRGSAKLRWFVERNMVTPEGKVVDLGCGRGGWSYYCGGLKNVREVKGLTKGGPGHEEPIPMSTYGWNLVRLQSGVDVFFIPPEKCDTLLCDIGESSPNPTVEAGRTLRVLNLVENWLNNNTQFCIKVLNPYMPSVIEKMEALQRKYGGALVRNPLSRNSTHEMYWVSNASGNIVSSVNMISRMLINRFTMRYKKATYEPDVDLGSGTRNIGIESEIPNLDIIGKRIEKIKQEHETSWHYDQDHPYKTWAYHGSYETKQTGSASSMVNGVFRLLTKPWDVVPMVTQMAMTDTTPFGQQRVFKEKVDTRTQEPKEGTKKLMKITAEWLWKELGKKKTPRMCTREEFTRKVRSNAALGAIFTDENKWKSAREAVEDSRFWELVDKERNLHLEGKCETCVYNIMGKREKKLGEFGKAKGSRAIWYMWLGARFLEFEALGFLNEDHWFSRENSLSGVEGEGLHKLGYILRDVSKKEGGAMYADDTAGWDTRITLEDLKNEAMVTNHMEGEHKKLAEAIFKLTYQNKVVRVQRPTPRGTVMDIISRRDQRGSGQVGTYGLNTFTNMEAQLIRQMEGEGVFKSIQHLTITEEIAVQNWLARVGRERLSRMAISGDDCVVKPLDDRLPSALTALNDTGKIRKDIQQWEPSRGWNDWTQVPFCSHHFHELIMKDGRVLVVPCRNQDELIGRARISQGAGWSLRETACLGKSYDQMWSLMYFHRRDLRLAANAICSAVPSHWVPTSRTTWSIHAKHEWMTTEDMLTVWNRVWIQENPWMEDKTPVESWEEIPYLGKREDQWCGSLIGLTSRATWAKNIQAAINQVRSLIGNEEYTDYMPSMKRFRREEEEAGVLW
In assay [7] the target is T2, Histone-lysine N-methyltransferase NSD2 (Homo sapiens, UniProt O96028).
T2 sequence (O96028 whole entry): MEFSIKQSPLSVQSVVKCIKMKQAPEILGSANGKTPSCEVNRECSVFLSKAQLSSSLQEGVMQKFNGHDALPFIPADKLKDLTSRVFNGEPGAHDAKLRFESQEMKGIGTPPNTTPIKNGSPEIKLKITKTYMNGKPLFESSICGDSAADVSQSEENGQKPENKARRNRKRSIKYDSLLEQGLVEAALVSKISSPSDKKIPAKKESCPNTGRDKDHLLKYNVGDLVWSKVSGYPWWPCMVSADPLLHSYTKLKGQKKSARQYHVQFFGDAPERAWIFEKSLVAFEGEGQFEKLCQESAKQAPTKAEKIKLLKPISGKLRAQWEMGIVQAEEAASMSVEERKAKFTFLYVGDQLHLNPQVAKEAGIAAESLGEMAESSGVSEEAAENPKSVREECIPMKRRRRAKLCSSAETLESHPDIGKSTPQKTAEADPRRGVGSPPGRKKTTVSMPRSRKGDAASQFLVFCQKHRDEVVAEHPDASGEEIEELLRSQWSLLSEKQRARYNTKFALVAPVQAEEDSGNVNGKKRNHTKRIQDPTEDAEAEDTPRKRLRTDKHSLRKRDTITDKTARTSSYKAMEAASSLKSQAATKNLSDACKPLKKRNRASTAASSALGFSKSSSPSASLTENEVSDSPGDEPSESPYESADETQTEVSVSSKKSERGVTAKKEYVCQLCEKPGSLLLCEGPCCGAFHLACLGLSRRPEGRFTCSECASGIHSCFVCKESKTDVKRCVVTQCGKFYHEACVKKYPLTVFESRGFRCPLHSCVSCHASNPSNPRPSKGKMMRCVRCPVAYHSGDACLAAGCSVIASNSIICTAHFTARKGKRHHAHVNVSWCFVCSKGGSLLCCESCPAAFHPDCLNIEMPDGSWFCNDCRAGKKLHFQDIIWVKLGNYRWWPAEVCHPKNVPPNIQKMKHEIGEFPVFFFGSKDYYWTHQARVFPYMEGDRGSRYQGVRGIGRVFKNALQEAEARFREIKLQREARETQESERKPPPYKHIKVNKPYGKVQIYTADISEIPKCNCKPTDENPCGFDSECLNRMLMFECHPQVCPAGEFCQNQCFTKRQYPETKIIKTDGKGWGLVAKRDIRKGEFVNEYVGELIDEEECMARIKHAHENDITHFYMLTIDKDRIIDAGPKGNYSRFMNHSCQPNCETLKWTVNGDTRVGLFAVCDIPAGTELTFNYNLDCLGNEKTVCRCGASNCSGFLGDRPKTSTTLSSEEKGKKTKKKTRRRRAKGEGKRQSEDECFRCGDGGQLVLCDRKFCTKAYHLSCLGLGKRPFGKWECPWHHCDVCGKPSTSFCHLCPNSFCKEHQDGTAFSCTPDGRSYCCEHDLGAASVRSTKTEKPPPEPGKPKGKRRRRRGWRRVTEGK
Format: biochemical.

Assay [8] concerns the target T3, Tyrosine-protein phosphatase non-receptor type 7 (Homo sapiens, UniProt P35236).
T3 sequence (P35236 whole entry): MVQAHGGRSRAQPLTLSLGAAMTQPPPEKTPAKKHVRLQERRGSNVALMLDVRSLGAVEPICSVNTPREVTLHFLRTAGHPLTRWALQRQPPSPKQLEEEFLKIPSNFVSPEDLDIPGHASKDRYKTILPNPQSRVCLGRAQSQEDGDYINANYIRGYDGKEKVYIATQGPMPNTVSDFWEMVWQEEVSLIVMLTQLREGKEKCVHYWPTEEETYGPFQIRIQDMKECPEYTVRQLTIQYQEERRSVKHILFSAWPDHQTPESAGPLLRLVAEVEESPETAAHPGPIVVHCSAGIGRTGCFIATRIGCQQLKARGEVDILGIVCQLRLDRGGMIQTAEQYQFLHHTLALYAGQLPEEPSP
Kind of assay: inhibitors of human HePTP phosphatase, […], biochemical, absorbance, leukemia target (AID 521). Format: functional.

Assay [9] deals with E3 ubiquitin-protein ligase Mdm2 (Homo sapiens, UniProt Q00987). Kind of assay: enhancers of MDM2-luciferase reporter signal, concentration-effect titration, project on inhibitors of MDM2 ubiquitin ligase, cellular assay, luminescent readout, 384-well plate format (AID 1394).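 Note: MDM2 E3 inhibitors raise luminescence so EC50 is for signal enhancement.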 It is filed as functional. For orientation: In a reporter assay the amount or activity of a reporter protein is the signal.
Sequence of E3 ubiquitin-protein ligase Mdm2 (Q00987 whole entry): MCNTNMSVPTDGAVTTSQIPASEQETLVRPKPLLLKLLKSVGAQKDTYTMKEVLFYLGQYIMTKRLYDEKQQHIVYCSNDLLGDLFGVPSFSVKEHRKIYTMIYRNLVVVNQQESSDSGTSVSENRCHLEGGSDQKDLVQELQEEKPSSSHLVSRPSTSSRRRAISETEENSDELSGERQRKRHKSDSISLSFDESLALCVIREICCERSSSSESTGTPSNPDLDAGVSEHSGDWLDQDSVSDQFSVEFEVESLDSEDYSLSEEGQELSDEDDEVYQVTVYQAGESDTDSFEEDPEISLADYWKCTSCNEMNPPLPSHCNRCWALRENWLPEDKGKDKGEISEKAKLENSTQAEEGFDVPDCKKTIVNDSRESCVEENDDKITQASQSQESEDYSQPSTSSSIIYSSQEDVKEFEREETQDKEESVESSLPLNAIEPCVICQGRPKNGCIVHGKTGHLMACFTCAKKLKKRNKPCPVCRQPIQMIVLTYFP

Assay [10] addresses T4, Heat shock factor protein 1 (Mus musculus, UniProt P38532).
T4 sequence (P38532 whole entry): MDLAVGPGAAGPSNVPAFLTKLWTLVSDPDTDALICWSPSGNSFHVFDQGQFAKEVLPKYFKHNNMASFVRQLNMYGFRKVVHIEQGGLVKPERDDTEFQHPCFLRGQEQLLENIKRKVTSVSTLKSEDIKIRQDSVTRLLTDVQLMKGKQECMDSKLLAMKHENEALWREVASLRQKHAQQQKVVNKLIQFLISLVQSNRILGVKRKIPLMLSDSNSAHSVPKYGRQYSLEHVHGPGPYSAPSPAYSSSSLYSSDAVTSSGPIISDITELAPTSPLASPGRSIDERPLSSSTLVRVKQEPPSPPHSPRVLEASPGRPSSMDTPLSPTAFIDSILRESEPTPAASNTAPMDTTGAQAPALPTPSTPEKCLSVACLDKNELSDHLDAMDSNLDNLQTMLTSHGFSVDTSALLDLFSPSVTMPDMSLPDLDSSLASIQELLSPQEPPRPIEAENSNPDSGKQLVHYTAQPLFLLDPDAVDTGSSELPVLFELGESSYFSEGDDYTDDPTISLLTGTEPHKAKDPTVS
The assay is described as follows: inhibition of MG132-induced HSE-luciferase signal, confirmation, cell-based, NIH3T3, luminescence, dose retest (AID 2382).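 Note: NIH3T3 fibroblasts with HSF1-driven luciferase reporter stressed by proteasome inhibitor MG132; luminescence from HSF1-driven luciferase expression after 8 hours of MG132 stress.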 Format: functional.

For assay [11], the system named is Vero. Kind of assay: cells. Format: functional. Conditions: Chlorocebus sabaeus.
Assay [12] deals with Paired box protein Pax-8 (Homo sapiens, UniProt Q06710). The assay is described as follows: inhibitors of PAX8-driven TPO luciferase reporter, dose response, RMG-I cells, cherry-pick (AID 687027).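 Note: luciferase reporter driven by Pax8 target thyroperoxidase promoter measured by SteadyGlo luminescence.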 Format: functional, cell-based.
Sequence of Paired box protein Pax-8 (Q06710 whole entry): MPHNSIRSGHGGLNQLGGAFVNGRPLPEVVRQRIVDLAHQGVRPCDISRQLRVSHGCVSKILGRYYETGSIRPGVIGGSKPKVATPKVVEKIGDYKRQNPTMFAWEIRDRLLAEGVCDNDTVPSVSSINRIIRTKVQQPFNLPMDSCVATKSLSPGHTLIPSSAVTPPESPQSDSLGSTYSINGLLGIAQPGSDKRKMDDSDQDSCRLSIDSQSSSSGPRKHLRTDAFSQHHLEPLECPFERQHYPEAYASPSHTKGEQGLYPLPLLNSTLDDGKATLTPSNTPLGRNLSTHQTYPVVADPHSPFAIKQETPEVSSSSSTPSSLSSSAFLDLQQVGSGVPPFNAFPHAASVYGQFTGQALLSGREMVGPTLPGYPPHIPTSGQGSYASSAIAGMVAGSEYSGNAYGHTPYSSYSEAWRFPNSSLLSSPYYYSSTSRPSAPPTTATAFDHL

Sequence of Large T antigen (P03070 whole entry): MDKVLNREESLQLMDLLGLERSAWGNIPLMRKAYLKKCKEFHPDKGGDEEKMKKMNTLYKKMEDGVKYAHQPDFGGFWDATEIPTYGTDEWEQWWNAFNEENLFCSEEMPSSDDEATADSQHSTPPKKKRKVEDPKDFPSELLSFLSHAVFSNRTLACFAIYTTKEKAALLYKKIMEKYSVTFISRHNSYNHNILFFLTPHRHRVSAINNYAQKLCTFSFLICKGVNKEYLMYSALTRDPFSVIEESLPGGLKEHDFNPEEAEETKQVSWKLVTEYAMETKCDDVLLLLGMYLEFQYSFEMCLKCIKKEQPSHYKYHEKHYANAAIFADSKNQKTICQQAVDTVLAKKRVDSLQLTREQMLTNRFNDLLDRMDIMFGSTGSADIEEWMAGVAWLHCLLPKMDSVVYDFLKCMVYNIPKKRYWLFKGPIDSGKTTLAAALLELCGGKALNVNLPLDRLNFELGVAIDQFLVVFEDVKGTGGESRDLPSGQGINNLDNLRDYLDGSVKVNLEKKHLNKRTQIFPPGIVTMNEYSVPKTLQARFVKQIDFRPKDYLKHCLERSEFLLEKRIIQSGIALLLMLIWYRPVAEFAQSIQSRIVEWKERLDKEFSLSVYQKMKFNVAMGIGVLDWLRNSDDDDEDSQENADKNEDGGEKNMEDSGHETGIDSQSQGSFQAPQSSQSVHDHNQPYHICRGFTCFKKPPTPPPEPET
Sequence of Keap1/Nrf2 (Q16236 whole entry): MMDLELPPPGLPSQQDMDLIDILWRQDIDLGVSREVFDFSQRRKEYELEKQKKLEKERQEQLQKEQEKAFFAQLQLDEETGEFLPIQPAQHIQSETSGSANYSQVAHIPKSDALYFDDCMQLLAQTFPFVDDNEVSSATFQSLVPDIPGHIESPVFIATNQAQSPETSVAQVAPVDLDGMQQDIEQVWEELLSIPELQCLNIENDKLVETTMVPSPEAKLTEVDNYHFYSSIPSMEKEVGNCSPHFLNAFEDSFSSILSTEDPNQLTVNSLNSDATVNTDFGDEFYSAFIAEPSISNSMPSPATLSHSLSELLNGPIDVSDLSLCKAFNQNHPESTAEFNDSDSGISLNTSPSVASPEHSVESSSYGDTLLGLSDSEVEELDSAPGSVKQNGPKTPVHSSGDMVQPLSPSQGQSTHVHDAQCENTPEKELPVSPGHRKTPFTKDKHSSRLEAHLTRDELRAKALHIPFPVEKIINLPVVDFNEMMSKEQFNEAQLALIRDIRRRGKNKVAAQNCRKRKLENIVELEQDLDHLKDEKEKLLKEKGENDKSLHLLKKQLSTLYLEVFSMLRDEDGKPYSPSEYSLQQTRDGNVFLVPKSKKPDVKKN
Sequence of Keap1/Nrf2 (Q14145 whole entry): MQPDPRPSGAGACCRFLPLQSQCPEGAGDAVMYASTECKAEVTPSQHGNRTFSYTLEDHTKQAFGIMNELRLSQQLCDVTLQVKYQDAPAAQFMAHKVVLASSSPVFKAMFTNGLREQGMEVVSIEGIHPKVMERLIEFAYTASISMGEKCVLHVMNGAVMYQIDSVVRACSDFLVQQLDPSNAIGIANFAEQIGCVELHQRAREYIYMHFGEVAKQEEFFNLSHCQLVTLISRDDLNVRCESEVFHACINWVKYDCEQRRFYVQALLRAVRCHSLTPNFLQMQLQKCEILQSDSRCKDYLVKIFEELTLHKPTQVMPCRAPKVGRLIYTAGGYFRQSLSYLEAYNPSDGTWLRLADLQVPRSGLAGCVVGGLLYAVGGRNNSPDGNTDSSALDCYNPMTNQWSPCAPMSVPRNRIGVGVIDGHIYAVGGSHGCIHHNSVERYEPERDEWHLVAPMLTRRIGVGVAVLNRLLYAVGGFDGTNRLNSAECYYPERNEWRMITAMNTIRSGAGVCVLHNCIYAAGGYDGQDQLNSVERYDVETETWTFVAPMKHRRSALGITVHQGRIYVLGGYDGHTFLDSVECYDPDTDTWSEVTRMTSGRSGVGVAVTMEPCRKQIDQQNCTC
Sequence of Bifunctional protein GlmU (P9WMN3 whole entry): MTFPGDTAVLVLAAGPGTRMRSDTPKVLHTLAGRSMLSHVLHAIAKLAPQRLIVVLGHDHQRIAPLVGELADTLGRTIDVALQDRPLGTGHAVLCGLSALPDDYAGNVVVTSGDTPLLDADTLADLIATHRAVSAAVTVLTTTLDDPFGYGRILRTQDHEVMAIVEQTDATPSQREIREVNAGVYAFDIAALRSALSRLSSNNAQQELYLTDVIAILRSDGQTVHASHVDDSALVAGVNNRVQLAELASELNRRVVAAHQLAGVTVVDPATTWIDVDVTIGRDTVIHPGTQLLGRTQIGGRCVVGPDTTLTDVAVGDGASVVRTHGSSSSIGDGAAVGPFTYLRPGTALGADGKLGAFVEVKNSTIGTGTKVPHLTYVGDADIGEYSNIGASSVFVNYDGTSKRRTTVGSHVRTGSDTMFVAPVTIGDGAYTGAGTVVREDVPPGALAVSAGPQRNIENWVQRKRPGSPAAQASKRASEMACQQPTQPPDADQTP

For the compound `CC1=C(C#N)c2nc(N)c(C#N)c(C)c2/C1=C\c1ccc(-c2ccccc2C(=O)O)o1`, the IC50 in assay [1] is 52.2 µM (active); in [2], 86.6 µM (active); in assay [3], > 20 µM (inactive); in [4] it was 70.3 µM (active); in [6], 27.2 µM (active). In addition, the AC50 is 15.3 µM (active) in [5] and > 20 µM (inactive) in assay [7].

Regarding `O=C(NCc1cccc(C(F)(F)F)c1)C1CCCN(c2ncccn2)C1` (configuration not stated), in assay [8], the IC50 is on record as > 100 µM (not active).

`COc1cc(/C=C2\COC/C(=C\c3cc(OC)c(OC)c(OC)c3)C2=O)cc(OC)c1OC`: the EC50 was 182 µM (active) in assay [9] and > 195 µM (not active) in [10]. Also, the CC50 in assay [11] is 2.07 µM (active). Besides, the AC50 in assay [12] is 1.56 µM (active).
